Structures are written as SMILES.

In the experiment the target is T1, N48K Clarin-1 (Homo sapiens, UniProt P58418, N48K).
T1 construct: expressed in transfected cells
T1 sequence (P58418 1-232 N48K): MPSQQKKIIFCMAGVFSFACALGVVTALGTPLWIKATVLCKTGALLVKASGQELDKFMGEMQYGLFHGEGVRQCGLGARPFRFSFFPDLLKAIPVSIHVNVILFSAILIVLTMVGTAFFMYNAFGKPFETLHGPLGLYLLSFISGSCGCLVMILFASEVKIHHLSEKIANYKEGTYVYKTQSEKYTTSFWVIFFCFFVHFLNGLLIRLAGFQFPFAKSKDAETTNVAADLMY
The experiment is described as follows: Restoration of expression of N48K Clarin-1, 24 hour incubation (high content imaging of HA-tagged N48K Clarin-1). The class given is cell-based. Also on record: IC50: scale not given here. The following applies: HEK293-Clarin-1 N48K-HA D9 cell line, 24 hr incubation with compound; for EC50: read-out: IC50 (the source's name). As for the experimental part:
Assay Method Showing Activity of Compounds of the Invention that Restore Expression of N48K Clarin-1 (24 hour incubation)
Clarin-1 is the protein encoded by the gene mutated in Usher III Syndrome (Adato et al., 2002). The most prevalent mutation in Clarin-1 in North America is N48K, which is reported to cause loss of glycosylation and a trafficking defect (Tian et al., 2009). […] Thus it is believed that restoring the trafficking of N48K Clarin-1 to the cell surface provides an avenue of intervention for Usher III Sydrome.
In a typical experiment, these cells were seeded on collagen-coated 96-well plates at a cell density of 20,000 cells per well in Dulbecco's Modified Eagle Medium (DMEM) contain 10% fetal bovine serum in a humidified incubator at 37° C., 5% CO2. After an overnight incubation, compounds were added for a 24 hr incubation in DMEM medium contain 10% fetal bovine serum in a humidified incubator at 37° C., 5% CO2. As a negative control, DMSO was used at 0.25% final concentrations. Compounds were typically tested in triplicate fashion. After the 24 hr incubation with compounds, the cells were fixed by the addition of 10% buffered formalin to the wells to achieve a final concentration of 4% formalin. After a 20 min fixation at room temperature, wells were washed three times with phosphate-buffered saline (PBS) containing Triton X-100 (0.02 phosphate, 150 mM NaCl, 0.1% Triton X-100).
The HA-tagged N48K Clarin-1 was detected with an antibody against the HA tag (HA.11 Clone 16B12 Monoclonal antibody, Covance #MMS-101P) at a dilution of 1:1000 in PBS containing Triton X-100. After a 90 min incubation, wells were washed three times with PBS containing Triton X-100, and a secondary antibody (Goat anti-mouse IgG-Cy3 (1.5 mg/ml), Jackson IR Europe #115165003) was added to the wells at a dilution of 1:250 in PBS containing Triton X-100 for 45 min. Wells were subsequently washed three times with PBS containing Triton X-100, and a final staining for nuclei was performed by the addition of DAPI (4′,6-diamidino-2-phenylindole) at a dilution of 1:10,000. The imaging of the stained cells was performed on an InCell 1000 High Content Imager (GE Healthcare), reading out the Cy3 channel for N48K Clarin-1 and the DAPI channel for nuclei. The images were analyzed and quantitated using a specific algorithm. This algorithm measured the HA-Clarin-1 staining for each cell based on the additional nuclear segmentation of the DAPI signal (FIG. 1). This algorithm measured the intensity per cell, and thus it is less sensitive for variation in cell number. Per well, approximately 2,000 cells were measured to achieve an average density per cell measurement. FIG. 1 illustrates high content analysis. DAPI-stained nuclei are used to perform segmentation of the image into individual cells. The density observed in the N48K Clarin-1 channel (Cy3) is then calculated per cell averaged over a field.

`CN1CCN(CCn2nc3nnc(-c4ccccc4)c(Cl)c3c2I)CC1` [Compound 20, 4-Chloro-3-iodo-2-(2-(4-methylpiperazin-1-yl)ethyl)-5-phenyl-2H-pyrazolo[3,4-c]pyridazine]: the EC50 was in the range of 5000 to 21000 nM.
As for `Cn1nc(C2CC2)c2c(Cl)c(-c3ccccc3)nnc21` [Compound 21, 4-chloro-3-cyclopropyl-1-methyl-5-phenyl-pyrazolo[3,4-c]pyridazine], the EC50 was in the range of 2000 to 5000 nM.
Same read-out and setting: under `Cc1nn(C)c2nnc(-c3ccccc3)c(Cl)c12` [Compound 22, 4-chloro-1,3-dimethyl-5-phenyl-pyrazolo[3,4-c]pyridazine] stands not above 2000 nM.
Still for that read-out and setting: under `Cc1nn(C)c2nnc(-c3ccccc3)c(Br)c12` [Compound 23, 4-bromo-1,3-dimethyl-5-phenyl-pyrazolo[3,4-c]pyridazine] stands 2000 to 5000 nM; under `Cc1nn(C)c2nnc(-c3ccccc3)c(F)c12` [Compound 24, 4-fluoro-1,3-dimethyl-5-phenyl-pyrazolo[3,4-c]pyridazine], not above 2000 nM; under `Cc1nn(C)c2nnc(-c3cccc(F)c3)c(Cl)c12` [Compound 25, 4-chloro-5-(3-fluorophenyl)-1,3-dimethyl-pyrazolo[3,4-c]pyridazine], not above 2000 nM.
On the same count and under the same terms, under `Cn1nc(-c2cccnc2)c2c(Cl)c(-c3ccccc3)nnc21` [Compound 26, 4-chloro-1-methyl-5-phenyl-3-(3-pyridyl)pyrazolo[3,4-c]pyridazine] stands not above 2000 nM.
Regarding `Cn1nc(C2CCCC2)c2c(Cl)c(-c3ccccc3)nnc21` [Compound 27, 4-chloro-3-cyclopentyl-1-methyl-5-phenyl-pyrazolo[3,4-c]pyridazine], the EC50 fell in the range of 2000 to 5000 nM.
Same read-out and setting: under `Cn1nc(-c2ccccc2)c2c(Cl)c(-c3ccsc3)nnc21` [IIIc, 4-chloro-1-methyl-3-phenyl-5-(3-thienyl)pyrazolo[3,4-c]pyridazine] stands not above 2000 nM; under `Cn1nc(-c2ccccc2)c2c(Cl)c(-c3cccnc3)nnc21` [IIId, 4-chloro-1-methyl-3-phenyl-5-(3-pyridyl)pyrazolo[3,4-c]pyridazine], not above 2000 nM.
Regarding `FC(F)(F)CCn1nc(-c2ccccc2)c2c(Cl)c(-c3ccccc3)nnc21` [IId, 4-chloro-3,5-diphenyl-1-(3,3,3-trifluoropropyl)pyrazolo[3,4-c]pyridazine], the EC50 is not above 2000 nM.
Consider `Clc1c(-c2ccccc2)nnc2c1c(-c1ccccc1)nn2C1CCOCC1` [IIe, 4-chloro-3,5-diphenyl-1-tetrahydropyran-4-yl-pyrazolo[3,4-c]pyridazine], for which the EC50 is not above 2000 nM.
Same read-out and setting: under `FC(F)(F)Cn1nc(-c2ccccc2)c2c(Cl)c(-c3ccccc3)nnc21` [IIk, 4-chloro-3,5-diphenyl-1(2,2,2-trifluoroethyl)pyrazolo[3,4-c]pyridazine] stands not above 2000 nM; under `CC(=O)CCn1nc(-c2ccccc2)c2c(Cl)c(-c3ccccc3)nnc21` [IIm, 4-(4-chloro-3,5-diphenyl-pyrazolo[3,4-c]pyridazin-1-yl)butan-2-one], not above 2000 nM; under `Clc1c(-c2ccccc2)nnc2c1c(-c1ccccc1)nn2Cc1ccncc1` [IIo, 4-chloro-3,5-diphenyl-1-(4-pyridylmethyl)pyrazolo[3,4-c]pyridazine], not above 2000 nM.
Same read-out and setting: then `Clc1c(-c2ccccc2)nnc2c1c(-c1ccccc1)nn2Cc1ccccn1` [IIp, 4-chloro-3,5-diphenyl-1-(2-pyridylmethyl)pyrazolo[3,4-c]pyridazine], with not above 2000 nM; and `O=C1CCCN1CCn1nc(-c2cccc(F)c2)c2c(Cl)c(-c3ccccc3)nnc21` [IIr, 1-[2-[4-chloro-3-(3-fluorophenyl)-5-phenyl-pyrazolo[3,4-c]pyridazin-1-yl]ethyl]pyrrolidin-2-one], with not above 2000 nM; and `CN1CCN(CCn2nc(I)c3c(Cl)c(-c4ccccc4)nnc32)CC1` [Ia, 4-Chloro-3-iodo-1-(2-(4-methylpiperazin-1-yl)ethyl)-5-phenyl-1H-pyrazolo[3,4-c]pyridazine], with not above 2000 nM.
Still for that read-out and setting: then `O=C(Cn1nc(C(F)(F)F)c2c(Cl)c(-c3ccccc3)nnc21)N1CCCC1` [Iaa, 2-[4-chloro-5-phenyl-3-(trifluoromethyl)pyrazolo[3,4-c]pyridazin-1-yl]-1-pyrrolidin-1-yl-ethanone], with 2000 to 5000 nM; and `CN1CCN(CCn2ncc3c(Cl)c(-c4ccccc4)nnc32)CC1` [Ib, 4-Chloro-1-(2-(4-methylpiperazin-1-yl)ethyl)-5-phenyl-1H-pyrazolo[3,4-c]pyridazine], with 5000 to 21000 nM.
Regarding `Clc1c(-c2ccccc2)nnc2[nH]nc(Br)c12` [Ibb, 3-bromo-4-chloro-5-phenyl-1H-pyrazolo[3,4-c]pyridazine], the EC50 is 2000 to 5000 nM.
Regarding `CN1CCN(CCn2nc(-c3cccc(C(=O)N4CCCC4)c3)c3c(Cl)c(-c4ccccc4)nnc32)CC1` [Id, (3-(4-chloro-1-(2-(4-methylpiperazin-1-yl)ethyl)-5-phenyl-1H-pyrazolo[3,4-c]pyridazin-3-yl)phenyl)(pyrrolidin-1-yl)methanone], the EC50 was not above 2000 nM.
Same read-out and setting: under `Clc1c(-c2ccccc2)nnc2[nH]nc(C3CC3)c12` [Idd, 4-chloro-3-cyclopropyl-5-phenyl-1H-pyrazolo[3,4-c]pyridazine] stands not above 2000 nM; under `CN1CCN(CCn2nc(-c3ccnc(C(F)(F)F)c3)c3c(Cl)c(-c4ccccc4)nnc32)CC1` [Ie, 4-chloro-1-(2-(4-methylpiperazin-1-yl)ethyl)-5-phenyl-3-(2-(trifluoromethyl)pyridin-4-yl)-1H-pyrazolo[3,4-c]pyridazine], not above 2000 nM.
The same measure, in the same setting: then `O=C(Cn1nc(C2CC2)c2c(Cl)c(-c3ccccc3)nnc21)N1CCCC1` [Iee, 2-(4-chloro-3-cyclopropyl-5-phenyl-pyrazolo[3,4-c]pyridazin-1-yl)-1-pyrrolidin-1-yl-ethanone], with 2000 to 5000 nM; and `CN1CCN(CCn2nc(C3=CCOCC3)c3c(Cl)c(-c4ccccc4)nnc32)CC1` [If, 4-chloro-3-(3,6-dihydro-2H-pyran-4-yl)-1-(2-(4-methylpiperazin-1-yl)ethyl)-5-phenyl-1H-pyrazolo[3,4-c]pyridazine], with not above 2000 nM.
As for `OCCn1nc(C2CC2)c2c(Cl)c(-c3ccccc3)nnc21` [Iff, 2-(4-chloro-3-cyclopropyl-5-phenyl-pyrazolo[3,4-c]pyridazin-1-yl)ethanol], the IC50 result is recorded as “A, B”.
For `CN1CCN(CCn2nc(/C=C/c3ccccc3)c3c(Cl)c(-c4ccccc4)nnc32)CC1` [Ig, (E)-4-chloro-1-(2-(4-methylpiperazin-1-yl)ethyl)-5-phenyl-3-styryl-1H-pyrazolo[3,4-c]pyridazine], the EC50 was not above 2000 nM.
Still for that read-out and setting: then `CN(C)CCNC(=O)Cn1nc(-c2cccnc2)c2c(Cl)c(-c3ccccc3)nnc21` [Igg, 2-[4-chloro-5-phenyl-3-(3-pyridyl)pyrazolo[3,4-c]pyridazin-1-yl]-N-(2-dimethylaminoethyl)acetamide], with 2000 to 5000 nM; and `CN1CCN(CCn2nc(-c3ccc(C(F)(F)F)nc3)c3c(Cl)c(-c4ccccc4)nnc32)CC1` [Ih, 4-chloro-1-(2-(4-methylpiperazin-1-yl)ethyl)-5-phenyl-3-(6-(trifluoromethyl)pyridin-3-yl)-1H-pyrazolo[3,4-c]pyridazine], with 2000 to 5000 nM.
Still for that read-out and setting: under `Cc1nn(CCO)c2nnc(-c3ccccc3)c(Cl)c12` [Ihh, 2-(4-chloro-3-methyl-5-phenyl-pyrazolo[3,4-c]pyridazin-1-yl)ethanol] stands not above 2000 nM; under `CN1CCN(CCn2nc(-c3cc4ccccc4o3)c3c(Cl)c(-c4ccccc4)nnc32)CC1` [Ij, 3-(benzofuran-2-yl)-4-chloro-1-(2-(4-methylpiperazin-1-yl)ethyl)-5-phenyl-1H-pyrazolo[3,4-c]pyridazine], not above 2000 nM.

The values above are taken from US9783545B2, “Pyrazolopyridazines and methods for treating retinal-degenerative diseases and hearing loss associated with usher syndrome” (Usher III Initiative, Inc., priority 2012, dated 2017).
